{"source": "patent EP0637237B1", "about": "“CALCIUM RECEPTOR-ACTIVE MOLECULES” (BRIGHAM AND WOMEN'S HOSPITAL, INC., priority 1993, dated 1994)", "key": {"human parathyroid cells": {"tested_on": "human parathyroid cells", "test": "PTH secretion from human parathyroid cells", "type": "cell-based", "conditions": "at concentrations that caused mobilization of intracellular Ca2+, Fig. 13"}, "[1]": {"biological_target": "T1, parathyroid cell Ca^2+ receptor (Bos taurus, UniProt P35384)", "T1 sequence (P35384 20-1085)": "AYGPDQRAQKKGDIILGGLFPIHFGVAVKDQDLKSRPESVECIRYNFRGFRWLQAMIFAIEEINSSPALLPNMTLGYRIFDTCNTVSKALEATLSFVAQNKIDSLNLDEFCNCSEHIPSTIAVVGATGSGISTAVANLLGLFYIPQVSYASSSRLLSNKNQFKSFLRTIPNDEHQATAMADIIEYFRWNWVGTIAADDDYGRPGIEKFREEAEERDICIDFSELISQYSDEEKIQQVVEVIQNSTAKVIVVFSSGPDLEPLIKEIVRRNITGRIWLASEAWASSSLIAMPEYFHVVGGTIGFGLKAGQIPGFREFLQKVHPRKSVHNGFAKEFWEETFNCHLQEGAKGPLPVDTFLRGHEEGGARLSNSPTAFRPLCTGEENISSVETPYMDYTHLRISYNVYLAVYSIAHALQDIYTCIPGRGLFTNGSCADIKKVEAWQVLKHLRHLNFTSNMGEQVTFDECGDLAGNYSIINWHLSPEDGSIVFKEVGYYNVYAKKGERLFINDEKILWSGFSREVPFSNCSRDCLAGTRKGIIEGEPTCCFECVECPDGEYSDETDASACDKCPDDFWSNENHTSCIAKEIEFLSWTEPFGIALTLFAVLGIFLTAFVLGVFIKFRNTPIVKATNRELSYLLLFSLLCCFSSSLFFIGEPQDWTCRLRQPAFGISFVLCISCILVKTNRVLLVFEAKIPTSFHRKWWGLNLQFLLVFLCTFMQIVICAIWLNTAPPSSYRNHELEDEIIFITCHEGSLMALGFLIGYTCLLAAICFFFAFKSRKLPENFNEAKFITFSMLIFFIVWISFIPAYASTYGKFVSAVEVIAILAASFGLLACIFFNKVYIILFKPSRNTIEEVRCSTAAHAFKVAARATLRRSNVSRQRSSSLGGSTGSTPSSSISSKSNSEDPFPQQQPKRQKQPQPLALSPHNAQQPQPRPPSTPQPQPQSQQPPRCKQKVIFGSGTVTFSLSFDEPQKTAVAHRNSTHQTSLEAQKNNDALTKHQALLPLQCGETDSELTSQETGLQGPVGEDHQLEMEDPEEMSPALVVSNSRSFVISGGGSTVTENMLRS", "type": "cell-based, bovine"}, "[2]": {"test": "Net positive charge of the molecule", "type": "physicochemical", "conditions": "Table 1; effective charge at physiological pH"}, "C-cell Ca^2+ receptor": {"biological_target": "T2, C-cell Ca^2+ receptor (Rattus norvegicus, UniProt P48442)", "T2 sequence (P48442 20-1079)": "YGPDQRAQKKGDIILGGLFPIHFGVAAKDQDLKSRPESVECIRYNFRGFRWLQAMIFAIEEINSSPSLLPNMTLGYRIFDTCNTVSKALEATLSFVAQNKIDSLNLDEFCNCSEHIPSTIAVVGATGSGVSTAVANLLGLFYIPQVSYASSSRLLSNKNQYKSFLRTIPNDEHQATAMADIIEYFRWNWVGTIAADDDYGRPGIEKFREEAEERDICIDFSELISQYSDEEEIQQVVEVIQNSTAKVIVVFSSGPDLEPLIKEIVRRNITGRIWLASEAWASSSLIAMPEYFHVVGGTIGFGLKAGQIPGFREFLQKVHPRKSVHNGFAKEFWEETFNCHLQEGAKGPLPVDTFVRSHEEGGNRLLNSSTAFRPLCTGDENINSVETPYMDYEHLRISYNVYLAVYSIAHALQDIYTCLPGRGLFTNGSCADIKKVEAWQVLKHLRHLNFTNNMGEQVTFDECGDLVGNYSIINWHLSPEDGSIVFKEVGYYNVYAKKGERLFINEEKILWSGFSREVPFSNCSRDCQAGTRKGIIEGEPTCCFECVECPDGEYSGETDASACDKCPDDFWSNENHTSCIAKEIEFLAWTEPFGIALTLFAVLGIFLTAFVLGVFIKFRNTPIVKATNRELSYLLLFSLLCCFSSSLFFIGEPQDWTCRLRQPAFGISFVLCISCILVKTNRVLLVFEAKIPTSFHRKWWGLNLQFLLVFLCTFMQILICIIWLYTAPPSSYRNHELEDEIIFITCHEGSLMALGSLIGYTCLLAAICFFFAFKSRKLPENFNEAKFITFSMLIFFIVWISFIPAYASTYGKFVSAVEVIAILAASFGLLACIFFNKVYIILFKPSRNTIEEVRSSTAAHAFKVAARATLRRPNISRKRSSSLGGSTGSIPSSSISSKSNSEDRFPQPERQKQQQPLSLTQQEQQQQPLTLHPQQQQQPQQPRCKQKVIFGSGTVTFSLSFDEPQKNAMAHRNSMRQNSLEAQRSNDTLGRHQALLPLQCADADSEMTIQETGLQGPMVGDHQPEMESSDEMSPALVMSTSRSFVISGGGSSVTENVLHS", "type": "cell-based", "conditions": "spermine 10 mM, neomycin B 5 mM"}}, "note": "Like-named read-outs stand apart in the source and are kept apart here."}
{"smiles": "NC[C@@H]1O[C@H](O[C@H]2[C@@H](O)[C@H](O[C@@H]3[C@@H](O)[C@H](N)C[C@H](N)[C@H]3O[C@H]3O[C@H](CN)[C@@H](O)[C@H](O)[C@H]3N)O[C@@H]2CO)[C@H](N)[C@@H](O)[C@@H]1O", "note": "[neomycin B]", "values": [{"measurement": "inhibition of PTH secretion", "setting": "human parathyroid cells", "result": "inhibited PTH secretion from human parathyroid cells"}, {"measurement": "[Ca2+]i response in Ca2+-free buffer", "setting": "[1]; 100 µM neomycin (maximally effective), absence of extracellular Ca2+", "result": "rapid and transient increase in [Ca^2+]i"}, {"measurement": "[Ca2+]i response in Ca2+-free buffer", "setting": "[1]; 10 àM neomycin alone (submaximal), Ca2+-free buffer", "result": "did not by itself cause an increase in [Ca^2+]i"}, {"measurement": "Net (+) Charge", "setting": "[2]", "result": "+6"}, {"measurement": "effect on basal [Ca2+]i", "setting": "C-cell Ca^2+ receptor", "result": "without effect on basal [Ca^2+]i"}]}
